The values that follow come from patent US10676458B2, “Antidiabetic bicyclic compounds” (Merck Sharp & Dohme Corp., priority 2016, dated 2020).

The target in this assay is human GPR40 (Homo sapiens (Human), UniProt O14842). Description: Inositol Phosphate Turnover (IP1) Assay. The class given is cell-based. The following applies: HEK cells stably expressing human GPR40; 60 min incubation; CisBio IP-One kit. The method, then: Human GPR40 stable cell-lines were generated in HEK cells. The expression plasmids were transfected using lipofectamine (Life Technologies) following manufacturer's instructions. Stable cell-lines were generated following drug selection and single cell cloning.
The assay was performed in 384-well format. HEK cells stably expressing human GPR40 were plated at 7500 cells per well in growth medium (DMEM/10% fetal calf serum). Cell plates were then incubated 16 hours at 37 degrees in a 5% CO2 incubator. Measurement of Inositol Phosphate Turnover (IP1) was performed using the CisBio IP-One kit (Part number 62IPAPEB). After the 16 hour incubation, the growth media was removed by centrifugation using the BlueWasher (AusWasher GUI Ver. v1.0.1.8) Protocol #21-“Light Dry” and 10 ul of stimulation buffer (prepared as described in the kit) was added to each well. In a separate plate, compounds were diluted in DMSO (200-fold over the final concentration in the assay well) and 50 nl was acoustically transferred to the appropriate well in the assay cell plate. The plates were then incubated for 60 minutes at 37 degrees in a 5% CO2 incubator. 10 ul of detection buffer (also prepared as described in the IP-One kit) was added to each well and the plates were incubated at room temperature for 60 minutes in the dark. The plates were then read in a Perkin Elmer EnVision or equivalent reader able to measure FRET. Fluorescent ratio of emission at 665 and 620 nm was then converted to IP1 concentration by back calculating from an IP1 standard curve prepared at the time of the assay. Data was normalized to % activity using a reference compound and EC50s determined using a standard 4-paramter fit.

Chain of human GPR40 (O14842 whole entry): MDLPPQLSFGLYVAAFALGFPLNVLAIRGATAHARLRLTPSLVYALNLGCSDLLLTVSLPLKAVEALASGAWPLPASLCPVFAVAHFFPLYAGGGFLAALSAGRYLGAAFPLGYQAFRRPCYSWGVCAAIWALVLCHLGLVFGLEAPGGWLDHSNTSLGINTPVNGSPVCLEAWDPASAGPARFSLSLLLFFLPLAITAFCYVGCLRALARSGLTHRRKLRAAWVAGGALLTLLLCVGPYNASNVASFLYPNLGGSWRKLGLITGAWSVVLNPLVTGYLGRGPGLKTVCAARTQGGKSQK

The molecule `C[C@H](C(=O)O)[C@H](c1ccc2c(c1)NC(C1CCN(Cc3cc(C(F)(F)F)ccc3C(F)(F)F)CC1)CO2)C1CC1` (single isomer, unassigned) [Example 2, Sodium (2S,3S)-3-((R or S)-3-(1-(2,5-Bis(trifluoromethyl)-benzyl)piperidin-4-yl)-3,4-dihydro-2H-benzo[b][1,4]oxazin-6-yl)-3-cyclopropyl-2-methyl propanoate] yielded an EC50 of 0.388 µM. The value for `C[C@H](C(=O)O)[C@H](c1ccc2c(c1)NC(C1CCN(Cc3cc(C(F)(F)F)ccc3C(F)(F)F)CC1)CO2)C1CC1` (single isomer, unassigned) [Example 3, Sodium (2S,3R)-methyl 3-((S or R)-3-(1-(2,5-bis(trifluoro-methyl)-benzyl)-piperidin-4-yl)-3,4-dihydro-2H-benzo[b]-[1,4]oxazin-6-yl)-3-cyclopropyl-2-methylpropanoate] was 0.642 µM; that for `C[C@H](C(=O)O)C(c1ccc2c(c1)N(C)C(C1CCN(Cc3cc(C(F)(F)F)ccc3C(F)(F)F)CC1)CO2)C1CC1` (single isomer, unassigned) [Example 4, Sodium (2S,3S)-3-((R or S)-3-(1-(2,5-bis(trifluoromethyl)benzyl)piperidin-4-yl)-4-methyl-3,4-di-hydro-2H-benzo[b][1,4]oxazin-6-yl)-3-cyclopropyl-2-methylpropanoate] was 4.7 µM. In turn, `C[C@H](C(=O)O)[C@H](c1ccc2c(c1)N(C)C(C1CCN(Cc3cc(C(F)(F)F)ccc3C(F)(F)F)CC1)CO2)C1CC1` (single isomer, unassigned) [Example 5, Sodium (2S,3S)-3-((S or R)-3-(1-(2,5-bis(trifluoro-methyl)-benzyl)piperidin-4-yl)-4-methyl-3,4-dihydro-2H-benzo[b]-[1,4]oxazin-6-yl)-3-cyclopropyl-2-methyl propanoate] had an EC50 of 2.1 µM.

In turn, `C[C@H](C(=O)O)[C@H](c1ccc2c(c1)NC(C1CCN(Cc3cc(C(F)(F)F)ccc3C(F)(F)F)CC1)CC2)C1CC1` (single isomer, unassigned) [Example 6, Sodium (2S,3R)-3-((R or S)-2-(1-(2,5-bis(trifluoromethyl)benzyl)piperidin-4-yl)-1,2,3,4-tetrahydroquinolin-7-yl)-3-cyclopropyl-2-methylpropanoate] yielded an EC50 of 0.035 µM. For `C[C@H](C(=O)O)[C@H](c1ccc2c(c1)NC(C1CCN(Cc3cc(C(F)(F)F)ccc3C(F)(F)F)CC1)CC2)C1CC1` (single isomer, unassigned) [Example 7, Sodium (2S,3R)-3-((S or R)-2-(1-(2,5-bis(tri-fluoromethyl)-benzyl)-piperidin-4-yl)-1,2,3,4-tetrahydroquin-olin-7-yl)-3-cyclo-propyl-2-methyl propanoate], a half-maximal effect (EC50) was put at 0.099 µM. The value for `C[C@H](C(=O)O)[C@H](c1ccc2c(c1)N(C)C(C1CCN(Cc3cc(C(F)(F)F)ccc3C(F)(F)F)CC1)CC2)C1CC1` (single isomer, unassigned) [Example 8, (2S,3R)-3-((R or S)-2-(1-(2,5-bis(trifluoromethyl)benzyl)piperidin-4-yl)-1-methyl-1,2,3,4-tetrahydroquinolin-7-yl)-3-cyclopropyl-2-methylpropanoic acid] was 0.439 µM.

As for `C[C@H](C(=O)O)[C@H](c1ccc2c(c1)N(C)C(C1CCN(Cc3cc(C(F)(F)F)ccc3C(F)(F)F)CC1)CC2)C1CC1` (single isomer, unassigned) [Example 9, (2S,3R)-3-((S or R)-2-(1-(2,5-bis(trifluoromethyl)-benzyl)piperidin-4-yl)-1-methyl-1,2,3,4-tetrahydroquinolin-7-yl)-3-cyclopropyl-2-methyl propanoic acid], the EC50 came out at 0.289 µM.

On to `COc1ccc(F)c(-c2ccc(C3CCc4ccc([C@H](C5CC5)[C@H](C)C(=O)O)cc4N3)cc2)c1` (single isomer, unassigned) [Example 11, Sodium (2S,3R)-3-cyclopropyl-3-((R or S)-2-(2′-fluoro-5′-methoxy-[1,1′-biphenyl]-4-yl)-1,2,3,4-tetrahydroquinolin-7-yl)-2-methylpropanoate], for which a half-maximal response (EC50) required 0.00079 µM. Molecule `COc1ccc(F)c(-c2ccc(C3CCc4ccc([C@H](C5CC5)[C@H](C)C(=O)O)cc4N3)cc2)c1` (single isomer, unassigned) [Example 12, (2S,3R)-3-cyclopropyl-3-((S or R)-2-(2′-fluoro-5′-methoxy-[1,1′-biphenyl]-4-yl)-1,2,3,4-tetrahydroquinolin-7-yl)-2-methylpropanoic acid] yielded an EC50 of 0.0002 µM.

On to `COc1ccc(F)c(-c2ccc(C3CCc4ccc([C@H](C5CC5)[C@H](C)C(=O)O)cc4N3C)cc2)c1` (single isomer, unassigned) [Example 14, (2S,3R)-3-cyclopropyl-3-((R or S)-2-(2′-fluoro-5′-methoxy-[1,1′-biphenyl]-4-yl)-1-methyl-1,2,3,4-tetrahydroquinolin-7-yl)-2-methylpropanoic acid], for which it took 0.001 µM to reach a half-maximal effect (EC50). For `COc1ccc(F)c(-c2ccc(C3CCc4ccc([C@H](C5CC5)[C@H](C)C(=O)O)cc4N3C)cc2)c1` (single isomer, unassigned) [Example 15, (2S,3R)-3-cyclopropyl-3-((S or R)-2-(2′-fluoro-5′-methoxy-[1,1′-biphenyl]-4-yl)-1-methyl-1,2,3,4-tetrahydroquinolin-7-yl)-2-methylpropanoic acid], it took 0.012 µM to reach a half-maximal effect (EC50). Take `COc1ccc(F)c(-c2ccc(C3COc4ccc([C@H](C5CC5)[C@H](C)C(=O)O)cc4N3)cc2)c1` (single isomer, unassigned) [Example 17, Sodium (2S,3R)-3-cyclopropyl-3-((R or S)-3-(2′-fluoro-5′-methoxy-[1,1′-biphenyl]-4-yl)-3,4-dihydro-2H-benzo[b][1,4]oxazin-6-yl)-2-methyl propanoate]: the half-maximal effective concentration (EC50) is 0.01 µM.

`COc1ccc(F)c(-c2ccc(C3COc4ccc([C@H](C5CC5)[C@H](C)C(=O)O)cc4N3)cc2)c1` (single isomer, unassigned) [Example 18, Sodium (2S,3R)-3-cyclopropyl-3-((S or R)-3-(2′-fluoro-5′-methoxy-[1,1′-biphenyl]-4-yl)-3,4-dihydro-2H-benzo[b][1,4]oxazin-6-yl)-2-methyl propanoate] came in with an EC50 of 0.0008 µM. As to `COc1ccc(F)c(-c2ccc(C3COc4ccc([C@H](C5CC5)[C@H](C)C(=O)O)cc4N3C)cc2)c1` (single isomer, unassigned) [Example 20, Sodium (2S,3R)-3-cyclopropyl-3-((R or S)-3-(2′-fluoro-5′-methoxy-[1,1′-biphenyl]-4-yl)-4-methyl-3,4-dihydro-2H benzo-[b][1,4]oxazin-6-yl)-2-methyl propanoate], the midpoint of the response, the EC50, lay at 0.0008 µM. As for `COc1ccc(F)c(-c2ccc(C3COc4ccc([C@H](C5CC5)[C@H](C)C(=O)O)cc4N3C)cc2)c1` (single isomer, unassigned) [Example 21, Sodium (2S,3R)-3-cyclopropyl-3-((S or R)-3-(2′-fluoro-5′-methoxy-[1,1′-biphenyl]-4-yl)-4-methyl-3,4-dihydro-2H-benzo[b][1,4]oxazin-6-yl)-2-methyl propanoate], the figure is 0.012 µM; as for `C[C@H](C(=O)O)[C@H](c1ccc2c(c1)CN(C1CCN(Cc3cc(C(F)(F)F)ccc3C(F)(F)F)CC1)CC2)C1CC1` [Example 1, (2S,3R)-3-(2-(1-(2,5-bis(Trifluoromethyl)benzyl)piperidin-4-yl)-1,2,34-tetrahydroisoquinolin-7-yl)-3-cyclopropyl-2-methylpropanoic acid], 0.611 µM.
